Assay results published in patent US20250163104A1, “MACROCYCLIC IMMUNOMODULATORS” (priority 2021, published 2025).
*1 amine or outer side, *2 acyl side, *3 side chain or, on linkers, in order; H or OH if unused. Where a SMILES comes first, the peptide text is derived from it. Bridges are numbered along the chain shown (N, C = ends). [ ]: non-standard residue; d: D form. The star is where a group is joined. ξ: configuration not given here. Phe(3-CH2NH2) = O=C([C@H](Cc1cccc(CN[*:3])c1)N[*:1])[*:2]; Phe(3,4-Cl2) = N[C@@H](Cc1ccc(Cl)c(Cl)c1)C(=O)O; Phe(3-CF3) = N[C@@H](Cc1cccc(C(F)(F)F)c1)C(=O)O; Ala(morpholin-4-yl) = N[C@@H](CN1CCOCC1)C(=O)O; Phe(4-COOH) = N[C@@H](Cc1ccc(C(=O)O)cc1)C(=O)O; Bip = N[C@@H](Cc1ccc(-c2ccccc2)cc1)C(=O)O; Phe(3-Me) = Cc1cccc(C[C@H](N)C(=O)O)c1; Val(3-OH) = CC(C)(O)[C@H](N)C(=O)O; 4Pal = N[C@@H](Cc1ccncc1)C(=O)O; 2Thi = N[C@@H](Cc1cccs1)C(=O)O; Cha = N[C@@H](CC1CCCCC1)C(=O)O; Thr(3ξ) = CC(O)[C@H](N)C(=O)O; Carboxymethyl = O=C(O)C*; NMeAib = CNC(C)(C)C(=O)O; Orn = NCCC[C@H](N)C(=O)O; Dab = NCC[C@H](N)C(=O)O; Dap = NC[C@H](N)C(=O)O

target: T1, human PD-1 / PD-L1-Ig binding on Jurkat cell line over-expressing human PD-1 (Jurkat-PD-1) (Homo sapiens, UniProt Q15116); experiment: Jurkat-PD-1 Cell Binding High-Content Screening Assay (CBA); assay type: cell-based; details: Jurkat HPD1_PDL1 IC50, Jurkat-PD-1 cells, PE-labeled PD-L1-Ig 20 nM final
T1 construct: expressed in transfected cells; host or cells: Jurkat
Procedure, shortened: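 Jurkat-hPD-1 cells in DMEM with 10% fetal calf serum receive test compound and are held at 37° C for 2 h. PE-labeled PD-L1-Ig is added at 20 nM final and left for 1 hour. Cells are then fixed and Hoechst-stained, and binding is measured by imaging.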

T1 sequence (Q15116 25-288): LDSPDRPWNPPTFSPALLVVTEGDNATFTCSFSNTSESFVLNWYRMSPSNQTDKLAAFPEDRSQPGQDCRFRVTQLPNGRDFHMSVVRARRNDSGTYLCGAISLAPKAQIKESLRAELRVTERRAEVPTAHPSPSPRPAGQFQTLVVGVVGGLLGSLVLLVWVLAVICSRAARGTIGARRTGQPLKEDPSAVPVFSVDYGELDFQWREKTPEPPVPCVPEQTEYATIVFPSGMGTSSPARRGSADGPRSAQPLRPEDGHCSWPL

Row | Structure (SMILES) | IC50
1 | CC(C)C[C@H]1NC(=O)[C@H](CCCN)NC(=O)[C@H](CCCNC(N)=O)NC(=O)[C@H](Cc2ccc(-c3ccccc3)cc2)NC(=O)[C@H](C(C)C)NC(=O)[C@H](Cc2c[nH]c3ccccc23)NC(=O)[C@H](CC(=O)O)NC(=O)[C@H](Cc2ccc(C(=O)O)cc2)NC(=O)[C@H](Cc2ccc(OCC(=O)O)cc2)NC(=O)CSC[C@@H](C(=O)N[C@@H](C)C(N)=O)NC(=O)[C@H]([C@@H](C)O)NC(=O)[C@H](C(C)C)NC(=O)[C@H](CC2CCCCC2)NC(=O)[C@H](Cc2c[nH]cn2)NC1=O [Compound 1602] | 23.8 nM
2 | CC[C@H](C)[C@@H]1NC(=O)[C@H](Cc2ccc(-c3ccccc3)cc2)NC(=O)[C@H](C(C)C)NC(=O)[C@H](Cc2cccc(Cl)c2)NC(=O)[C@H](CC(=O)O)NC(=O)[C@H](Cc2ccc(OCC(=O)O)cc2)NC(=O)[C@H](Cc2ccc(OCC(=O)O)cc2)NC(=O)CSC[C@@H](C(=O)N[C@@H](C)C(N)=O)NC(=O)[C@H]([C@@H](C)O)NC(=O)[C@H](C(C)C)NC(=O)[C@H](CC2CCCCC2)NC(=O)[C@H](CCN)NC(=O)[C@@H](CC(C)C)NC(=O)[C@H](CCCN)NC1=O [Compound 1568] | 24.5 nM

same assay, conditions: Jurkat-PD-1 cells, PE-labeled PD-L1-Ig 20 nM final; read-out: Jurkat HPD1_PDL1 IC50

Row | Structure (SMILES) | IC50
3 | CC(C)C[C@H]1NC(=O)[C@H](CCCN)NC(=O)[C@H](CCC(=O)O)NC(=O)[C@H](Cc2ccc(-c3ccccc3)cc2)NC(=O)[C@H](C(C)C)NC(=O)[C@H](Cc2c[nH]c3ccccc23)NC(=O)[C@H](CC(=O)O)NC(=O)[C@H](Cc2ccc(OCC(=O)O)cc2)NC(=O)[C@H](CN)NC(=O)CSC[C@@H](C(=O)N[C@@H](C)C(N)=O)NC(=O)[C@H]([C@@H](C)O)NC(=O)[C@H](C(C)C)NC(=O)[C@H](Cc2cccc(CN)c2)NC(=O)[C@H](CCN)NC1=O [Compound 1508] ({CH2CO}-[Dap]Y(Carboxymethyl)DWV[Bip]E[Orn][dL][Dab][Phe(3-CH2NH2)]VTCA-NH2; thioether N-14) | 163 nM
4 | Cc1cccc(C[C@@H]2NC(=O)[C@H](CC(=O)O)NC(=O)[C@H](Cc3ccc(OCC(=O)O)cc3)NC(=O)[C@H](Cc3ccc(OCC(=O)O)cc3)NC(=O)CSC[C@@H](C(=O)NCC(N)=O)NC(=O)[C@H](CO)NC(=O)[C@H](C(C)C)NC(=O)[C@H](CC3CCCCC3)NC(=O)[C@H](CCN)NC(=O)[C@@H](CC(C)C)NC(=O)[C@H](CCCN)NC(=O)[C@H](C(C)C)NC(=O)[C@H](Cc3ccc(-c4ccccc4)cc3)NC(=O)[C@H](CC(C)C)NC2=O)c1 [Compound 1650] ({CH2CO}-Y(Carboxymethyl)Y(Carboxymethyl)D[Phe(3-Me)]L[Bip]V[Orn][dL][Dab][Cha]VSCG-NH2; thioether N-14) | 24.2 nM
5 | CC(C)C[C@H]1NC(=O)[C@H](CCCN)NC(=O)[C@H](CCC(=O)O)NC(=O)[C@H](Cc2ccc(-c3ccccc3)cc2)NC(=O)[C@H](C(C)C)NC(=O)[C@H](Cc2cccs2)NC(=O)[C@H](CC(=O)O)NC(=O)[C@H](Cc2cccs2)NC(=O)[C@H](Cc2ccc(OCC(=O)O)cc2)NC(=O)CSC[C@@H](C(=O)N[C@@H](C)C(N)=O)NC(=O)[C@H]([C@@H](C)O)NC(=O)[C@H](C(C)C)NC(=O)[C@H](CC2CCCCC2)NC(=O)[C@H](CCN)NC1=O [Compound 2206] ({CH2CO}-Y(Carboxymethyl)[2Thi]D[2Thi]V[Bip]E[Orn][dL][Dab][Cha]VTCA-NH2; thioether N-14) | 14.6 nM
6 | Cc1cccc(C[C@@H]2NC(=O)[C@H](CC(=O)O)NC(=O)[C@H](Cc3ccc(C(=O)O)cc3)NC(=O)[C@H](Cc3cccs3)NC(=O)CSC[C@@H](C(=O)N[C@@H](CCN)C(N)=O)NC(=O)[C@H](CO)NC(=O)[C@H](C(C)(C)O)NC(=O)[C@H](CC3CCCCC3)NC(=O)[C@H](CCN)NC(=O)[C@@H](CC(C)C)NC(=O)[C@H](CCCN)NC(=O)[C@H](Cc3ccc(OCC(=O)O)cc3)NC(=O)[C@H](Cc3ccc(-c4ccccc4)cc3)NC(=O)[C@H](Cc3ccc(C(=O)O)cc3)NC2=O)c1 [Compound 2625] ({CH2CO}-[2Thi][Phe(4-COOH)]D[Phe(3-Me)][Phe(4-COOH)][Bip]Y(Carboxymethyl)[Orn][dL][Dab][Cha][Val(3-OH)]SC[Dab]-NH2; thioether N-14) | 5.7 nM
7 | Cc1cccc(C[C@@H]2NC(=O)[C@H](CC(=O)O)NC(=O)[C@H](Cc3ccc(C(=O)O)cc3)NC(=O)[C@H](Cc3ccncc3)NC(=O)CSC[C@@H](C(=O)N[C@H](CC(N)=O)C(N)=O)NC(=O)[C@H]([C@@H](C)O)NC(=O)[C@H](C(C)C)NC(=O)[C@H](CC3CCCCC3)NC(=O)[C@H](CCN)NC(=O)[C@@H](CC(C)C)NC(=O)[C@H](CCCN)NC(=O)[C@H](Cc3ccc(O)cc3)NC(=O)[C@H](Cc3ccc(-c4ccccc4)cc3)NC(=O)[C@H](C(C)C)NC2=O)c1 [Compound 2290] ({CH2CO}-[4Pal][Phe(4-COOH)]D[Phe(3-Me)]V[Bip]Y[Orn][dL][Dab][Cha]VTC[dN]-NH2; thioether N-14) | 13.5 nM
8 | CC(C)C[C@@H]1NC(=O)[C@H](CCN)NC(=O)[C@@H](CC(C)C)NC(=O)[C@H](CCCN)NC(=O)[C@H](C(C)C)NC(=O)[C@H](Cc2ccc(-c3ccccc3)cc2)NC(=O)[C@H](C(C)C)NC(=O)[C@H](Cc2c[nH]c3ccccc23)NC(=O)[C@H](CC(=O)O)NC(=O)[C@H](Cc2ccc(OCC(=O)O)cc2)NC(=O)[C@H](CN)NC(=O)CSC[C@@H](C(=O)N[C@@H](C)C(N)=O)NC(=O)[C@H]([C@@H](C)O)NC(=O)[C@H](C(C)C)NC1=O [Compound 1048] ({CH2CO}-[Dap]Y(Carboxymethyl)DWV[Bip]V[Orn][dL][Dab]LVTCA-NH2; thioether N-14) | 13.7 nM
9 | CC(C)C[C@H]1NC(=O)[C@H](CCCN)NC(=O)[C@H](CCCNC(N)=O)NC(=O)[C@H](Cc2ccc(-c3ccccc3)cc2)NC(=O)[C@H](C(C)C)NC(=O)[C@H](Cc2c[nH]c3ccccc23)NC(=O)[C@H](CC(=O)O)NC(=O)[C@H](Cc2ccc(C(=O)c3ccccc3)cc2)NC(=O)[C@H](CN)NC(=O)CSC[C@@H](C(=O)N[C@@H](C)C(N)=O)NC(=O)[C@H]([C@@H](C)O)NC(=O)[C@H](C(C)C)NC(=O)[C@H](CC2CCCCC2)NC(=O)[C@H](CCN)NC1=O [Compound 2132] | 65.2 nM
10 | CC(C)C[C@@H]1NC(=O)[C@H](Cc2c[nH]c3ccccc23)NC(=O)[C@H](CC(=O)O)NC(=O)[C@H](Cc2ccc(OCC(=O)O)cc2)NC(=O)[C@H](CCN)NC(=O)CSC[C@@H](C(=O)N[C@@H](CC(N)=O)C(N)=O)NC(=O)[C@H](CO)NC(=O)[C@H](C(C)C)NC(=O)[C@H](CC2CCCCC2)NC(=O)[C@H](CCN)NC(=O)[C@@H](CC(C)C)NC(=O)[C@H](CCCN)NC(=O)[C@H](C(C)O)NC(=O)[C@H](Cc2ccc(-c3ccccc3)cc2)NC1=O (stereo partly drawn) [Compound 2558] ({CH2CO}-[Dab]Y(Carboxymethyl)DWL[Bip][Thr(3ξ)][Orn][dL][Dab][Cha]VSCN-NH2; thioether N-14) | 14 nM
11 | CC(C)C[C@H]1NC(=O)[C@H](CCCN)NC(=O)[C@H](Cc2ccc(C(=O)O)cc2)NC(=O)[C@H](Cc2ccc(-c3ccccc3)cc2)NC(=O)[C@H](Cc2ccc(Cl)c(Cl)c2)NC(=O)[C@H](Cc2cccc(C(F)(F)F)c2)NC(=O)[C@H](CC(=O)O)NC(=O)[C@H](Cc2ccc(C(=O)O)cc2)NC(=O)[C@H](CN2CCOCC2)NC(=O)CSC[C@@H](C(=O)N[C@@H](CCN)C(N)=O)NC(=O)[C@H](CCC(=O)O)NC(=O)[C@H](C(C)C)NC(=O)[C@H](CC2CCCCC2)NC(=O)[C@H](CCN)NC1=O [Example 2745] ({CH2CO}-[Ala(morpholin-4-yl)][Phe(4-COOH)]D[Phe(3-CF3)][Phe(3,4-Cl2)][Bip][Phe(4-COOH)][Orn][dL][Dab][Cha]VEC[Dab]-NH2; thioether N-14) | 2.3 nM
12 | CC(C)C[C@H]1NC(=O)[C@H](CCCN)NC(=O)[C@H](C(C)C)NC(=O)[C@H](Cc2ccc(-c3ccccc3)cc2)NC(=O)[C@H](C(C)C)NC(=O)[C@H](Cc2c[nH]c3ccccc23)NC(=O)[C@H](CC(=O)O)NC(=O)[C@H](Cc2ccc(OCC(=O)O)cc2)NC(=O)[C@H](Cc2ccc(OCC(=O)O)cc2)NC(=O)CSC[C@@H](C(=O)N[C@@H](C)C(N)=O)NC(=O)[C@H](CCCNC(=N)N)NC(=O)[C@H](C(C)C)NC(=O)[C@H](CC2CCCCC2)NC(=O)[C@H](CCN)NC1=O [Compound 1749] ({CH2CO}-Y(Carboxymethyl)Y(Carboxymethyl)DWV[Bip]V[Orn][dL][Dab][Cha]VRCA-NH2; thioether N-14) | 4.2 nM
13 | CC[C@H](C)[C@@H]1NC(=O)[C@H](Cc2ccc(-c3ccccc3)cc2)NC(=O)[C@H](C(C)C)NC(=O)[C@H](Cc2c[nH]c3ccccc23)NC(=O)[C@H](CC(=O)O)NC(=O)[C@H](Cc2ccc(O)cc2)NC(=O)[C@H](CC(N)=O)NC(=O)CSC[C@@H](C(=O)NCC(N)=O)NC(=O)[C@H](CO)NC(=O)[C@H](C(C)C)NC(=O)[C@H](CC(C)C)NC(=O)[C@H](CCN)NC(=O)[C@@H](CC(C)C)NC(=O)[C@H](CCCN)NC1=O [Compound 1121] ({CH2CO}-NYDWV[Bip]I[Orn][dL][Dab]LVSCG-NH2; thioether N-14) | 20.9 nM
14 | Cc1cccc(C[C@@H]2NC(=O)[C@H](CC(=O)O)NC(=O)[C@H](Cc3ccc(C(=O)O)cc3)NC(=O)C(C)(C)N(C)C(=O)CSC[C@@H](C(=O)N[C@@H](CCN)C(N)=O)NC(=O)[C@H](CCC(=O)O)NC(=O)[C@H](C(C)(C)O)NC(=O)[C@H](CC3CCCCC3)NC(=O)[C@H](CCN)NC(=O)[C@@H](CC(C)C)NC(=O)[C@H](CCCN)NC(=O)[C@H](Cc3ccc(OCC(=O)O)cc3)NC(=O)[C@H](Cc3ccc(-c4ccccc4)cc3)NC(=O)[C@H](Cc3ccc(OCC(=O)O)cc3)NC2=O)c1 [Compound 2689] ({CH2CO}-[NMeAib][Phe(4-COOH)]D[Phe(3-Me)]Y(Carboxymethyl)[Bip]Y(Carboxymethyl)[Orn][dL][Dab][Cha][Val(3-OH)]EC[Dab]-NH2; thioether N-14) | 411 nM
